Assay results reported in patent US20140296338A1, “PROPHYLACTIC AND/OR THERAPEUTIC AGENT FOR CARDIOVASCULAR COMPLICATIONS OF DIABETES” (priority 2011, published 2014).

Test system: dermal fibroblast
Assay: Influence of fatty acids on intracellular neutral lipid content of dermal fibroblast from diabetic patient, enzyme assay
Format: cell-based, human
Parameters: Intracellular TG-decreasing activity: scale not given here
Settings: for Intracellular TG-decreasing activity: based on part of the results in FIG. 4 and FIG. 5; for Activity to decrease intracellular TG: comparison of medium-chain fatty acids (FIG. 5); for Intracellular TG (neutral lipid) content: fatty acid added at 50 and 500 μM, cells collected 2 days later, versus no fatty acid (FIG. 4)
Excerpt: With the consent of the diabetic patient in Example 3, part of dermal tissue was harvested and was then subjected to primary culture (culture medium: DMEM/10% FBS) by Explant method, followed by repeated subculture to give a cell line. The resulting dermal fibroblast was examined for the influence of various fatty acids on an intracellular neutral lipid content. Specifically, the dermal specimen harvested from the patient was subjected to an in vitro enzyme assay using various fatty acids to measure an intracellular neutral lipid content. The enzyme assay was performed using a triglyceride quantification kit (manufacturer: BioVision, Inc., product code: K622-100). […] To the patient's cells, the various fatty acids were added, and 2 days later, the cells were collected. In the figures, (-) is a specimen to which no fatty acid was added (cultured as a control in DMEM/10% FBS alone). C16:0 is palmitic acid, C18:1 is oleic acid, C18:2 is linoleic acid, C20:4 is arachidonic acid, C20:5 is eicosapentaenoic acid (EPA), C7:0 is heptanoic acid, C8:0 is caprylic acid, and C10:0 is capric acid.

SMILES	Intracellular TG-decreasing activity	Activity to decrease intracellular TG	Intracellular TG (neutral lipid) content
CC(C)CCCCCCC(=O)O [8-methylnonanoic acid]	100	great activity to decrease TG	–
CCCCCCCCCC(=O)O [capric acid]	100	great activity to decrease TG	decreased
CCCCCCCC(=O)O [caprylic acid]	5	–	–
CCCCCCC(=O)O [heptanoic acid, reference compound]	0	–	increased
